This passage reports CP50 results from patent US20240245793A1, “PSD-95 INHIBITORS AND USES THEREOF” (priority 2021, published 2024).

The test system of the data set is HeLa cells stably expressing HaloGFP. Description: Chloroalkane penetration assay (CAPA), membrane permeability and cellular uptake. Format: cell-based. The source says: Since PSD-95 is located intracellularly, it is essential for any drug targeting PSD-95 to efficiently cross the cell membrane. To assess the cellular permeability and delivery to the cytosol of the compounds as defined herein, the cellular chloroalkane penetration assay (CAPA) may be used (Peraro et al. 2018). This assay takes advantage of a modified haloalkane dehalogenase designed to covalently bind chloroalkane (CA) molecules. A HeLa cell line expressing a fusion protein comprising a HaloTag, a green fluorescent protein (GFP) and a mitochondria-targeting peptide is used to report cytosolic delivery. The general format of the CAPA is a pulse-chase assay (Deprey & Kritzer, 2020). Cells expressing the HaloTag enzyme are incubated with CA-tagged peptides. When these CA-peptides penetrate the cell membrane and reach the cytosol, they will bind to and react with the HaloTag (pulse step). Following a washing step, the cells are incubated with a CA-tagged dye that quantitatively penetrates the cell membrane and reacts with remaining unreacted HaloTag sites (chase step). Flow cytometry is used to measure the fluorescence intensity of the cells and the measured fluorescence is inversely proportional to the amount of CA-peptides that reach the penetrated the cells and can thus be used to assess cytosolic delivery. The obtained data is commonly expressed as CP50 values, the concentration at which 50% cell penetration is observed. The CP50 value of a compound may be measured as described in example 4.
The membrane permeability of compounds 10 to 75 was determined in HeLa cells stably expressing HaloGFP exclusively located in the cytosol. Cells were seeded at a density of 40.000 cells/well one day prior to the experiment. After the growth media was aspirated and replaced by 100 μL of Opti-MEM, 25 μL of a prepared serial dilution of the ligand in Opti-MEM was added to the cells (constant DMSO concentration), and the plate was incubated for 4 h at 37° C. and 5% CO2. The contents of the wells were aspirated, and cells were washed with fresh Opti-MEM for 15 min. After aspiration of the wash, the cells were incubated with TAMRA-CA (5 μM) for 15 min. After aspiration of the chase solution, cells were washed with Opti-MEM for 30 min. Following removal of the wash, cells were trypsinized, resuspended in PBS (2% FBS), and analyzed using a benchtop flow cytometer. Using no ligand and no TAMRA-CA control well, the obtained fluorescence intensity data was normalized and plotted as dose-response curves. Reported CP50 values represent half-maximum red fluorescence which behaves inverse to cell penetration of the ligand.

The mark [1] stands for this setting: CA-tagged ligands, 4 h at 37° C., L-TAT and L-Arg9, mean ± SEM (Table 10, FIG. 7).

SMILES strings stand for the structures. Where two headings read alike, the source gives them in different places.

In the case of `CC[C@H](C)[C@H](NC(=O)CCOCCOCCN(CCOCCOCCC(=O)N[C@H](C(=O)N[C@@H](CCC(=O)O)C(=O)N[C@H](C(=O)N[C@@H](CC(=O)O)C(=O)N[C@H](C(=O)O)C(C)C)[C@@H](C)O)[C@@H](C)CC)C(=O)[C@H](CCCNC(=N)N)NC(=O)[C@H](CCCNC(=N)N)NC(=O)[C@H](CCCNC(=N)N)NC(=O)[C@H](CCC(N)=O)NC(=O)[C@H](CCCNC(=N)N)NC(=O)[C@H](CCCNC(=N)N)NC(=O)[C@H](CCCCN)NC(=O)[C@H](CCCCN)NC(=O)[C@H](CCCNC(=N)N)NC(=O)CNC(=O)[C@H](Cc1ccc(O)cc1)NC(=O)CCC(=O)NCCOCCOCCCCCCCl)C(=O)N[C@@H](CCC(=O)O)C(=O)N[C@H](C(=O)N[C@@H](CC(=O)O)C(=O)N[C@H](C(=O)O)C(C)C)[C@@H](C)O` [Compound 10], the CP50 by setting is: (CA-tagged NPEG4-(IETDV)2 with various CPP-tags, 4 h at 37° C., mean ± SEM (Table 11, FIG. 8)) 55.1 ± 3.0 µM; under setting [1], 55.1 ± 3.0 µM.

`CC(C)C[C@H](NC(=O)[C@@H](NC(=O)[C@H](CCC(=O)O)NC(=O)[C@H](CCCCN)NC(=O)CCOCCOCCN(CCOCCOCCC(=O)N[C@@H](CCCCN)C(=O)N[C@@H](CCC(=O)O)C(=O)N[C@H](C(=O)N[C@@H](CC(C)C)C(=O)N[C@H](C(=O)O)C(C)C)[C@@H](C)O)C(=O)[C@H](CCCNC(=N)N)NC(=O)[C@H](CCCNC(=N)N)NC(=O)[C@H](CCCNC(=N)N)NC(=O)[C@H](CCC(N)=O)NC(=O)[C@H](CCCNC(=N)N)NC(=O)[C@H](CCCNC(=N)N)NC(=O)[C@H](CCCCN)NC(=O)[C@H](CCCCN)NC(=O)[C@H](CCCNC(=N)N)NC(=O)CNC(=O)[C@H](Cc1ccc(O)cc1)NC(=O)CCC(=O)NCCOCCOCCCCCCCl)[C@@H](C)O)C(=O)N[C@H](C(=O)O)C(C)C` [Compound 12] returned a CP50 under setting [1] of 72.5 ± 4.4 µM.

Molecule `CC(C)[C@H](NC(=O)[C@@H](NC(=O)[C@@H](NC(=O)[C@H](CCC(=O)O)NC(=O)[C@H](CCCCN)NC(=O)CCOCCOCCN(CCOCCOCCC(=O)N[C@@H](CCCCN)C(=O)N[C@@H](CCC(=O)O)C(=O)N[C@H](C(=O)N[C@H](C(=O)N[C@H](C(=O)O)C(C)C)[C@@H](C)O)[C@@H](C)O)C(=O)[C@H](CCCNC(=N)N)NC(=O)[C@H](CCCNC(=N)N)NC(=O)[C@H](CCCNC(=N)N)NC(=O)[C@H](CCC(N)=O)NC(=O)[C@H](CCCNC(=N)N)NC(=O)[C@H](CCCNC(=N)N)NC(=O)[C@H](CCCCN)NC(=O)[C@H](CCCCN)NC(=O)[C@H](CCCNC(=N)N)NC(=O)CNC(=O)[C@H](Cc1ccc(O)cc1)NC(=O)CCC(=O)NCCOCCOCCCCCCCl)[C@@H](C)O)[C@@H](C)O)C(=O)O` [Compound 14] gave a CP50 under setting [1] of 78.4 ± 3.9 µM.

Under setting [1], `CC(C)[C@H](NC(=O)[C@@H](NC(=O)[C@@H](NC(=O)[C@H](CCC(=O)O)NC(=O)[C@H](CCCCN)NC(=O)CCOCCOCCN(CCOCCOCCC(=O)N[C@@H](CCCCN)C(=O)N[C@@H](CCC(=O)O)C(=O)N[C@H](C(=O)N[C@H](C(=O)N[C@H](C(=O)O)C(C)C)C(C)C)[C@@H](C)O)C(=O)[C@H](CCCNC(=N)N)NC(=O)[C@H](CCCNC(=N)N)NC(=O)[C@H](CCCNC(=N)N)NC(=O)[C@H](CCC(N)=O)NC(=O)[C@H](CCCNC(=N)N)NC(=O)[C@H](CCCNC(=N)N)NC(=O)[C@H](CCCCN)NC(=O)[C@H](CCCCN)NC(=O)[C@H](CCCNC(=N)N)NC(=O)CNC(=O)[C@H](Cc1ccc(O)cc1)NC(=O)CCC(=O)NCCOCCOCCCCCCCl)[C@@H](C)O)C(C)C)C(=O)O` [Compound 16] yielded a CP50 of 81.8 ± 1.2 µM.

The molecule `CC(C)[C@H](NC(=O)[C@H](CCCNC(=N)N)NC(=O)[C@@H](NC(=O)[C@H](CCC(=O)O)NC(=O)[C@H](CCCCN)NC(=O)CCOCCOCCN(CCOCCOCCC(=O)N[C@@H](CCCCN)C(=O)N[C@@H](CCC(=O)O)C(=O)N[C@H](C(=O)N[C@@H](CCCNC(=N)N)C(=O)N[C@H](C(=O)O)C(C)C)[C@@H](C)O)C(=O)[C@H](CCCNC(=N)N)NC(=O)[C@H](CCCNC(=N)N)NC(=O)[C@H](CCCNC(=N)N)NC(=O)[C@H](CCC(N)=O)NC(=O)[C@H](CCCNC(=N)N)NC(=O)[C@H](CCCNC(=N)N)NC(=O)[C@H](CCCCN)NC(=O)[C@H](CCCCN)NC(=O)[C@H](CCCNC(=N)N)NC(=O)CNC(=O)[C@H](Cc1ccc(O)cc1)NC(=O)CCC(=O)NCCOCCOCCCCCCCl)[C@@H](C)O)C(=O)O` [Compound 18] yielded a CP50 under setting [1] of 47.7 ± 1.0 µM.

Molecule `CC[C@H](C)[C@H](NC(=O)CCOCCOCCN(CCOCCOCCC(=O)N[C@H](C(=O)N[C@@H](CO)C(=O)N[C@H](C(=O)N[C@@H](CC(=O)O)C(=O)N[C@H](C(=O)O)C(C)C)[C@@H](C)O)[C@@H](C)CC)C(=O)[C@H](CCCNC(=N)N)NC(=O)[C@H](CCCNC(=N)N)NC(=O)[C@H](CCCNC(=N)N)NC(=O)[C@H](CCC(N)=O)NC(=O)[C@H](CCCNC(=N)N)NC(=O)[C@H](CCCNC(=N)N)NC(=O)[C@H](CCCCN)NC(=O)[C@H](CCCCN)NC(=O)[C@H](CCCNC(=N)N)NC(=O)CNC(=O)[C@H](Cc1ccc(O)cc1)NC(=O)CCC(=O)NCCOCCOCCCCCCCl)C(=O)N[C@@H](CO)C(=O)N[C@H](C(=O)N[C@@H](CC(=O)O)C(=O)N[C@H](C(=O)O)C(C)C)[C@@H](C)O` [Compound 20] had a CP50 under setting [1] of 41.9 ± 1.6 µM.

With `CC(C)[C@H](NC(=O)[C@@H](NC(=O)[C@@H](NC(=O)[C@H](CCC(=O)O)NC(=O)[C@@H](NC(=O)CCOCCOCCN(CCOCCOCCC(=O)N[C@H](C(=O)N[C@@H](CCC(=O)O)C(=O)N[C@H](C(=O)N[C@H](C(=O)N[C@H](C(=O)O)C(C)C)C(C)C)[C@@H](C)O)C(C)C)C(=O)[C@H](CCCNC(=N)N)NC(=O)[C@H](CCCNC(=N)N)NC(=O)[C@H](CCCNC(=N)N)NC(=O)[C@H](CCC(N)=O)NC(=O)[C@H](CCCNC(=N)N)NC(=O)[C@H](CCCNC(=N)N)NC(=O)[C@H](CCCCN)NC(=O)[C@H](CCCCN)NC(=O)[C@H](CCCNC(=N)N)NC(=O)CNC(=O)[C@H](Cc1ccc(O)cc1)NC(=O)CCC(=O)NCCOCCOCCCCCCCl)C(C)C)[C@@H](C)O)C(C)C)C(=O)O` [Compound 22], the CP50 under setting [1] was 86.1 ± 4.5 µM.

The molecule `CC(C)C[C@H](NC(=O)[C@@H](NC(=O)[C@H](CCC(=O)O)NC(=O)[C@H](CCCCN)NC(=O)CCOCCOCCN(CCOCCOCCC(=O)N[C@@H](CCCCN)C(=O)N[C@@H](CCC(=O)O)C(=O)N[C@H](C(=O)N[C@@H](CC(C)C)C(=O)N[C@H](C(=O)O)C(C)C)[C@@H](C)O)C(=O)[C@H](CCCNC(=N)N)NC(=O)[C@H](CCCNC(=N)N)NC(=O)[C@H](CCCNC(=N)N)NC(=O)[C@H](CCCNC(=N)N)NC(=O)[C@H](CCCNC(=N)N)NC(=O)[C@H](CCCNC(=N)N)NC(=O)[C@H](CCCNC(=N)N)NC(=O)[C@H](CCCNC(=N)N)NC(=O)[C@H](CCCNC(=N)N)NC(=O)CCC(=O)NCCOCCOCCCCCCCl)[C@@H](C)O)C(=O)N[C@H](C(=O)O)C(C)C` [Compound 24] yielded a CP50 of 0.78 ± 0.05 µM.

Regarding `CC(C)[C@H](NC(=O)[C@@H](NC(=O)[C@@H](NC(=O)[C@H](CCC(=O)O)NC(=O)[C@H](CCCCN)NC(=O)CCOCCOCCN(CCOCCOCCC(=O)N[C@@H](CCCCN)C(=O)N[C@@H](CCC(=O)O)C(=O)N[C@H](C(=O)N[C@H](C(=O)N[C@H](C(=O)O)C(C)C)[C@@H](C)O)[C@@H](C)O)C(=O)[C@H](CCCNC(=N)N)NC(=O)[C@H](CCCNC(=N)N)NC(=O)[C@H](CCCNC(=N)N)NC(=O)[C@H](CCCNC(=N)N)NC(=O)[C@H](CCCNC(=N)N)NC(=O)[C@H](CCCNC(=N)N)NC(=O)[C@H](CCCNC(=N)N)NC(=O)[C@H](CCCNC(=N)N)NC(=O)[C@H](CCCNC(=N)N)NC(=O)CCC(=O)NCCOCCOCCCCCCCl)[C@@H](C)O)[C@@H](C)O)C(=O)O` [Compound 26], the CP50 worked out at 0.74 ± 0.09 µM.

`CC(C)[C@H](NC(=O)[C@@H](NC(=O)[C@@H](NC(=O)[C@H](CCC(=O)O)NC(=O)[C@H](CCCCN)NC(=O)CCOCCOCCN(CCOCCOCCC(=O)N[C@@H](CCCCN)C(=O)N[C@@H](CCC(=O)O)C(=O)N[C@H](C(=O)N[C@H](C(=O)N[C@H](C(=O)O)C(C)C)C(C)C)[C@@H](C)O)C(=O)[C@H](CCCNC(=N)N)NC(=O)[C@H](CCCNC(=N)N)NC(=O)[C@H](CCCNC(=N)N)NC(=O)[C@H](CCCNC(=N)N)NC(=O)[C@H](CCCNC(=N)N)NC(=O)[C@H](CCCNC(=N)N)NC(=O)[C@H](CCCNC(=N)N)NC(=O)[C@H](CCCNC(=N)N)NC(=O)[C@H](CCCNC(=N)N)NC(=O)CCC(=O)NCCOCCOCCCCCCCl)[C@@H](C)O)C(C)C)C(=O)O` [Compound 28]: the CP50 is 0.79 ± 0.06 µM.
